Reference: patent US8314126B2, “Disubstituted phenylpiperdines/piperazines as modulators of dopamine neurotransmission” (NSAB, Filial af Neurosearch Sweden AB, Sverige, priority 2004, dated 2012)
Counter-ions that a name gives are not always drawn.

tested on: not given; assay: not given; settings: not given

Row | SMILES | melting point [°C]
1 | CCN1CCC(c2cccc(S(=O)(=O)N(C)C)c2F)CC1 (as salt: fumaric acid salt) | 151 to 152
2 | CCN1CCC(c2cccc(C(=O)C(F)(F)F)c2F)CC1 (as salt: fumaric acid salt) | 109 to 110
3 | CCN1CCC(c2cccc(S(=O)(=O)C(F)(F)F)c2F)CC1 (as salt: hydrochloric acid salt) | 189 to 191
4 | CCN1CCN(c2cccc(S(C)(=O)=O)c2F)CC1 (as salt: hydrochloric acid salt) | 214 to 216
5 | CCCN1CCC(c2cccc(S(C)(=O)=O)c2C)CC1 (as salt: hydrochloric acid salt) [Example 4, 4-[2-METHYL-3-(METHYLSULFONYL)PHENYL]-1-PROPYLPIPERIDINE] | 233 to 235
6 | CCCN1CCC(c2cccc(C(F)(F)F)c2C#N)CC1 (as salt: hydrochloric acid salt) [Example 7, 2-(1-PROPYLPIPERIDIN-4-YL)-6-(TRIFLUOROMETHYL)BENZONITRILE] | 272 to 274
7 | CCCN1CCC(c2cccc(C(F)(F)F)c2OC)CC1 (as salt: hydrochloric acid salt) [Example 8, 4-[2-METHOXY-3-(TRIFLUOROMETHYL)PHENYL]-1-PROPYLPIPERIDINE] | 235.5
8 | COCCN1CCN(c2cccc(C(F)(F)F)c2F)CC1 (as salt: hydrochloric acid salt) [Example 10, 1-[2-FLUORO-3-(TRIFLUOROMETHYL)PHENYL]-4-(2-METHOXYETHYL)PIPERAZINE] | 170 to 171
9 | CCCN1CCN(c2cccc(Cl)c2Cl)CC1 (as salt: hydrochloric acid salt) [Example 11, 1-(2,3-DICHLOROPHENYL)-4-PROPYLPIPERAZINE] | 220 to 221
10 | CS(=O)(=O)c1cccc(C2CCN(CCC3OCCO3)CC2)c1F (as salt: hydrochloric acid salt) [Example 26, 1-[2-(1,3-DIOXOLAN-2-YL)ETHYL]-4-[2-FLUORO-3-(METHYLSULFONYL)PHENYL]-PIPERIDINE] | 224 to 225
11 | OCCN1CCC(c2cccc(C(F)(F)F)c2F)CC1 (as salt: hydrochloric acid salt) [Example 27, 2-{4-[2-FLUORO-3-(TRIFLUOROMETHYL)PHENYL]PIPERIDIN-1-YL}ETHANOL] | 224 to 226
12 | CCCN1CCC(c2cccc(C(F)(F)F)c2O)CC1 (as salt: hydrochloric acid salt) [Example 29, 2-(1-PROPYLPIPERIDIN-4-YL)-6-(TRIFLUOROMETHYL)PHENOL] | 218 to 220
13 | CCN1CCC(c2cccc(S(C)(=O)=O)c2F)CC1 (as salt: maleic acid salt) [Example 2, 1-ETHYL-4-[2-FLUORO-3-(METHYLSULFONYL)PHENYL]-PIPERIDINE] | 112 to 113
14 | CCN1CCC(c2cccc(OS(=O)(=O)C(F)(F)F)c2F)CC1 (as salt: methanesulfonate) [Example 34, 3-(1-ETHYLPIPERIDIN-4-YL)-2-FLUOROPHENYL TRIFLUOROMETHANESULFONATE] | 158 to 159

Second part, the compound after the results:

Row | melting point [°C] | SMILES
15 | 199 to 202 | CCN1CCC(c2cccc(C(C)=O)c2F)CC1
16 | 234 to 236 | CCCN1CCN(c2cccc(C#N)c2C(F)(F)F)CC1 (as salt: hydrochloric acid salt)
17 | 241 to 243 | CCCN1CCN(c2cccc(S(C)(=O)=O)c2F)CC1 (as salt: hydrochloric acid salt)
18 | 255 to 257 | CCCN1CCC(c2cccc(S(C)(=O)=O)c2F)CC1 (as salt: hydrochloric acid salt) [Example 1, 4-[2-FLUORO-3-(METHYLSULFONYL)PHENYL]-1-PROPYLPIPERIDINE]
19 | 250 to 252 | CCCN1CCC(c2cccc(S(C)(=O)=O)c2Cl)CC1 (as salt: hydrochloric acid salt) [Example 3, 4-[2-CHLORO-3-(METHYLSULFONYL)PHENYL]-1-PROPYLPIPERIDINE]
20 | 232 to 233 | CCCN1CCC(c2cccc(S(C)(=O)=O)c2N)CC1 (as salt: hydrochloric acid salt) [Example 6, 2-(METHYLSULFONYL)-6-(1-PROPYLPIPERIDIN-4-YL)ANILINE]
21 | 180 to 181 | CCCN1CCN(c2cccc(C(F)(F)F)c2F)CC1 (as salt: hydrochloric acid salt) [Example 9, 1-[2-FLUORO-3-(TRIFLUOROMETHYL)PHENYL]-4-PROPYLPIPERAZINE]
22 | 266 to 269 | CCCN1CCC(c2cccc(C#N)c2C(F)(F)F)CC1 (as salt: hydrochloric acid salt) [Example 13, 3-(1-PROPYLPIPERIDIN-4-YL)-2-(TRIFLUORO-METHYL)BENZONITRILE]
23 | 203 to 205 | CCCN1CCC(c2cccc(OC(F)(F)F)c2O)CC1 (as salt: hydrochloric acid salt) [Example 30, 2-(1-PROPYLPIPERIDIN-4-YL)-6-(TRIFLUOROMETHOXY)PHENOL]
24 | 259 to 261 | OCCCN1CCC(c2cccc(C(F)(F)F)c2F)CC1 (as salt: hydrochloric acid salt) [Example 32, 3-{4-[2-FLUORO-3-(TRIFLUOROMETHYL)PHENYL]PIPERIDIN-1-YL}PROPAN-1-OL]
25 | 259 to 261 | C=CCN1CCC(c2cccc(S(C)(=O)=O)c2F)CC1 (as salt: hydrochloric acid salt) [Example 40, 1-ALLYL-4-[2-FLUORO-3-(METHYLSULFONYL)PHENYL]PIPERIDINE]
26 | 180 to 181 | COCCN1CCC(c2cccc(C(F)(F)F)c2F)CC1 (as salt: hydrochloric acid salt) [Example 47, 4-[2-FLUORO-3-(TRIFLUOROMETHYL)PHENYL]-1-(2-METHOXYETHYL)PIPERIDINE]
27 | 224 to 226 | C=CCN1CCC(c2cccc(C(F)(F)F)c2F)CC1 (as salt: hydrochloric acid salt) [Example 70, 1-ALLYL-4-[2-FLUORO-3-(TRIFLUOROMETHYL)PHENYL]PIPERIDINE]
28 | 258 to 260 | CCCN1CCC(c2cccc(C(F)(F)F)c2F)CC1 (as salt: hydrochloric acid salt) [Example 71, 4-[2-FLUORO-3-(TRIFLUOROMETHYL)PHENYL]-1-PROPYLPIPERIDINE]
29 | 264 to 265 | CCN1CCC(c2cccc(S(C)(=O)=O)c2Cl)CC1 (as salt: hydrochloride) [Example 28, 4-[2-CHLORO-3-(METHYLSULFONYL)PHENYL]-1-ETHYLPIPERIDINE]

tested on: drug-naive rats; assay: Locomotor activity in drug-naive rats; settings: drug-naive habituated rats, 11 μmol/kg, recorded between 30 and 60 minutes, ± SEM

Row | SMILES | Locomotor activity
30 | CCN1CCC(c2cccc(S(C)(=O)=O)c2F)CC1 [drawing 36] | 2254 ± 804 counts/30 min
31 | COCCN1CCC(c2cccc(S(C)(=O)=O)c2F)CC1 [drawing 38] | 1836 ± 504 (P = 0.064) counts/30 min

same assay, conditions: drug-naive habituated rats, 33 μmol/kg, recorded between 30 and 60 minutes, ± SEM

Row | SMILES | Locomotor activity
32 | CCN1CCC(c2cccc(S(C)(=O)=O)c2F)CC1 [drawing 36] | 2499 ± 766 (P = 0.1) counts/30 min
33 | COCCN1CCC(c2cccc(S(C)(=O)=O)c2F)CC1 [drawing 38] | 1258 ± 623 counts/30 min

same assay, conditions: drug-naive habituated rats, 100 μmol/kg, recorded between 30 and 60 minutes, ± SEM

Row | SMILES | Locomotor activity
34 | CCN1CCC(c2cccc(S(C)(=O)=O)c2F)CC1 [drawing 36] | 2418 ± 703 (P = 0.1) counts/30 min
35 | COCCN1CCC(c2cccc(S(C)(=O)=O)c2F)CC1 [drawing 38] | 1085 ± 211 counts/30 min

same assay, conditions: drug-naive rats, 11 μmol/kg, recorded for 60 minutes, ± SEM

Row | SMILES | Locomotor activity [counts/60 min]
36 | CCN1CCC(c2cccc(S(C)(=O)=O)c2F)CC1 [drawing 29] | 13113 ± 1795

same assay, conditions: drug-naive rats, 33 μmol/kg, recorded for 60 minutes, ± SEM

Row | SMILES | Locomotor activity [counts/60 min]
37 | CCN1CCC(c2cccc(S(C)(=O)=O)c2F)CC1 [drawing 29] | 12744 ± 1291

same assay, conditions: drug-naive rats, 100 μmol/kg, recorded for 60 minutes, ± SEM

Row | SMILES | Locomotor activity [counts/60 min]
38 | CCN1CCC(c2cccc(S(C)(=O)=O)c2F)CC1 [drawing 29] | 12530 ± 2577
